From US20140315322A1 (FUSO PHARMACEUTICAL INDUSTRIES, LTD., priority 2011, published 2014)
Several values for one entry are separate records, joined by “and”; a condition that tells them apart may be missing. Identical values can stand only once.

Columns and labels:
clinical [1] = details: blood plasma of individual dialysis patients treated with acetic acid-containing dialysis fluid, dialysis time 4 hr
Protocol: From ΔE of samples for calibration curve (W2 to 8, n=1), calibration curve (Y=aX+b, Y: ΔE, X: concentration μmol/L) was prepared by using least-squares method. No weighting of calibration curve was carried out. The range of quantitative analysis was from 20 to 2000 μmol/L.
(§1) The measured value of each sample was calculated by applying the peak area ratio or ΔE to the calibration curve, and rounding off to one decimal place.

clinical [2] = details: blood plasma of individual dialysis patients treated with acetic acid-containing dialysis fluid, dialysis time 4 hr; remark: listed apart in the source
Protocol: Into a polypropylene tube, each sample (400 μL, samples for calibration curve and human blood plasma) was taken, and the internal standard solution IS-W1 (100 μL) was added thereto. Further, 10% sulfosalicylic acid (special grade, manufactured by Wako Pure Chemical Industries) solution (100 μL) was added thereto and stirred. To this solution was added MTBE (400 μL, Lot No. EPF0734, manufactured by Wako Pure Chemical Industries) and stirred for 1 minute. After that, the mixture was subjected to centrifugation (RX-200, manufactured by TOMY SEIKO) at 10000 rpm at 4° C. for 5 minutes, and the supernatant (200 μL) was taken into another glass vial. Then, to the supernatant was added N-methyl-N-(tert-butyldimethylsilyl)trifluoroacetamide (MTBSTFA) (5 to 10 μL, Lot No. BCBC7878, manufactured by ALDRICH) and heated with Block Heater (DTU-2B, manufactured by TAITEC) at 60° C. for 1 to 2 hours. After that, the resultant solution was measured by using GC/MS (JMS-AMII150, manufactured by JEOL) in the following conditions.
Samples were pretreated in the same method as that of “4. Pretreatment method and measurement method for samples” of Example 1, and then measured by GC/MS (5975C GCMSD, manufactured by Agilent) in the following conditions. […]
as §1

CC(=O)O [acetic acid]
Measured value, Enzyme method (clinical [1]): 1620.3 µmol/L and 1653.5 µmol/L and 1896.4 µmol/L
concentration at 4 h (clinical [1]; human, plasma, other: dialysis with a dialysis fluid containing acetic acid, Measured value, Enzyme method): 1680 µM
Measured value, GC/MS method (clinical [2]): 1745.5 µmol/L and 1854.9 µmol/L and 1991.5 µmol/L
concentration at 4 h (clinical [2]; human, plasma, other: dialysis with a dialysis fluid containing acetic acid, Measured value, GC/MS method): 1790 µM
